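Tested at 5 concentrations; 48 h exposure; 96-well plates; endpoints linearly interpolated, else capped at highest concentration. GI50 = concentration required for 50% inhibition of growth.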 The source made the active and inactive calls. Cut-off read from the data, not from the text of the source: active = GI50 up to about 1.1 µM and inactive = higher.
What was measured:
Test in all cases: NCI tumour cell line growth inhibition, 48 h
[1] = tested on: TK-10
[2] = tested on: NCI-H23
[3] = tested on: SF-295
[4] = tested on: NCI-H522
[5] = tested on: EKVX
[6] = tested on: RPMI-8226
[7] = tested on: SK-MEL-5
[8] = tested on: MDA-MB-231
[9] = tested on: K562
[10] = tested on: SK-MEL-2
[11] = tested on: SF-539
[12] = tested on: UO-31
[13] = tested on: COLO 205
[14] = tested on: SK-MEL-28
[15] = tested on: HCT-15
[16] = tested on: A549
[17] = tested on: IGROV-1
[18] = tested on: NCI-H460

With COC(=O)/C=C1\C(=O)C=C2[C@@H]3C[C@H]4C[C@H](CC[C@@]4(C)N21)C3(C)NC(C)=O (stereo partly specified) the GI50 [1] was 15.7 µM (inactive), the GI50 [2] was 23.7 µM (inactive) and the GI50 [3] was 19.5 µM (inactive). The GI50 [4] was 1.42 µM (inactive), the GI50 [5] was 11.4 µM (inactive) and the GI50 [6] was 4.06 µM (inactive). For the same compound, the GI50 [7] was 11.1 µM (inactive), the GI50 [8] was 26 µM (inactive) and the GI50 [9] was 7.66 µM (inactive). For the same compound, the GI50 [10] was 18.4 µM (inactive), the GI50 [11] was 3.33 µM (inactive) and the GI50 [12] was 19.5 µM (inactive). The GI50 [13] was 5.9 µM (inactive), the GI50 [14] was 3.12 µM (inactive) and the GI50 [15] was 11.5 µM. For the same compound, the GI50 [16] was 23.6 µM (inactive), the GI50 [17] was 20 µM (inactive) and the GI50 [18] was 29.8 µM (inactive).
With O=C(N/N=C\c1ccccc1)Nc1cccc2ccccc12 the GI50 [1] was 42.9 µM (inactive), the GI50 [2] was > 100 µM (inactive) and the GI50 [3] was 32.1 µM (inactive). For the same compound, the GI50 [4] was 56.6 µM (inactive), the GI50 [5] was 36.1 µM (inactive) and the GI50 [6] was > 100 µM (inactive). The GI50 [7] was 12.1 µM (inactive), the GI50 [8] was 91.4 µM (inactive) and the GI50 [9] was > 100 µM (inactive). The GI50 [10] was 26.7 µM (inactive), the GI50 [11] was 50.4 µM (inactive) and the GI50 [12] was 40.5 µM (inactive). For the same compound, the GI50 [13] was 48.3 µM (inactive), the GI50 [14] was 21.7 µM (inactive) and the GI50 [15] was 74 µM. The GI50 [16] was 26.1 µM (inactive), the GI50 [17] was 24.7 µM (inactive) and the GI50 [18] was 27.7 µM (inactive).
With CCC(C)C(=O)OC1C(=O)OC2CC3C(C)=CC(=O)C(O)C3(C)C3C4(O)OCC23C1C(C)C4O (stereo unspecified) the GI50 [1] was < 0.0188 µM (active), the GI50 [2] was < 0.0144 µM (active) and the GI50 [3] was < 0.0204 µM (active). For the same compound, the GI50 [4] was < 0.0105 µM (active), the GI50 [5] was 0.264 µM (active) and the GI50 [6] was < 0.0111 µM (active). The GI50 [7] was < 0.0108 µM (active), the GI50 [8] was 0.032 µM (active) and the GI50 [9] was < 0.01 µM (active). The GI50 [10] was < 0.0292 µM (active), the GI50 [11] was < 0.01 µM (active) and the GI50 [12] was 0.0324 µM (active). For the same compound, the GI50 [13] was 0.205 µM (active), the GI50 [14] was < 0.0164 µM (active) and the GI50 [15] was under 0.0185 µM. The GI50 [16] was 0.155 µM (active), the GI50 [17] was < 0.01 µM (active) and the GI50 [18] was < 0.014 µM (active).
With COc1ccc(-c2cc(-c3ccncc3)nc(N)c2-c2ccc(F)cc2)cc1 the GI50 [1] was 35.2 µM (inactive), the GI50 [2] was 76 µM (inactive) and the GI50 [3] was 80.9 µM (inactive). For the same compound, the GI50 [4] was 11.1 µM (inactive), the GI50 [5] was > 100 µM (inactive) and the GI50 [6] was > 100 µM (inactive). For the same compound, the GI50 [7] was 35.1 µM (inactive), the GI50 [8] was > 100 µM (inactive) and the GI50 [9] was > 100 µM (inactive). The GI50 [10] was 36 µM (inactive), the GI50 [11] was 19.4 µM (inactive) and the GI50 [12] was 17.3 µM (inactive). For the same compound, the GI50 [13] was 5.43 µM (inactive), the GI50 [15] was 8.91 µM and the GI50 [16] was > 100 µM (inactive). For the same compound, the GI50 [17] was 10.6 µM (inactive) and the GI50 [18] was 15.5 µM (inactive).
